Earlier results, collected in patent publication US20200246376A1, “HYDROGEN BASED COMPOSITIONS” (HYDROGEN4HEALTH PTY LTD, priority 2019, published 2020).

Structure (SMILES): [HH] [molecular hydrogen, hydrogen]
- saturation of molecular hydrogen in water (hydrogen water prepared by electrolysis): around 1.6 ppm
- typical saturation of hydrogen gas in water (standard temperature and pressure (STP)): 1.6 mg/L
